Measurements taken from patent US7763732B2, “Indole derivatives” (N.V. Organon, priority 2005, dated 2010).

System: mice
Assay: Formalin paw test in mice
Assay type: in vivo
Settings: Mus musculus, intravenous, 5 min before 5% formalin s.c. into hind paw, Phase 2 = 20-30 min after formalin, read-out: ED50, inhibition of nociceptive behaviour of Phase 2
Experimental: Formalin Paw Test In Mice
Four-six groups of six mice were treated with vehicle and one of four to five doses of the test compound (typically between 0.03, 0.1, 3 and 10 μmol/kg), administered intravenously into the tail vein (vehicle: 10% Tween-80 in saline; injection volume 10 ml/kg). This injection was followed 5 minutes later by 20 μl of 5% formalin, which was administered sub-cutaneously to the dorsum of the left hind paw. Immediately after formalin administration the animal was placed in a test chamber and data acquisition, using a detection device (Automated Nociception Analyser (ANA); Department of Anesthesiology, University of California, San Diego), was started, independently for each chamber. The nociceptive behaviour was measured as the number of counts (licking, lifting, biting and flinching actions) detected within the two phases of nociception (Yaksh et al, 2001). The nociceptive behaviour between 0 and 5 min after formalin injection (Phase 1) and between 20 and 30 min after formalin injection (Phase 2) was recorded and number of counts for each mouse, compared to the mean number of counts for the vehicle treated animals, was calculated. Once values for each mouse were obtained, the mean and s.e.m. were calculated for each treatment group. The percent inhibition data were then used to calculate ED50 values for Phase 1 and Phase 2.

| SMILES | ED50 |
| --- | --- |
| CCc1cccc2c(-c3nsc(CN4CCC(C(=O)NCCO)CC4)n3)cn(CC3CCOCC3)c12 [Example 10A, 7-Ethyl-3-[(5-{4-[(N-{2-hydroxy}ethyl)carboxamido]piperidin-1-yl}methyl)-(1,2,4]-thiadiazol-3-yl)-1-(tetrahydropyran-4-yl)methyl-1H-indole] | < 5 µmol/kg |
| CS(=O)(=O)N(CCO)Cc1nc(-c2cn(CC3CCOCC3)c3c(Cl)cccc23)ns1 [Example 15, 7-Chloro-3-({5-[(N-{2-hydroxy}ethyl)-(N-{methylsulfonyl})amino]methyl}-([1,2,4]-thiadiazol-3-yl))-1-(tetrahydropyran-4-yl)methyl-1H-indole] | < 5 µmol/kg |
| O=C(NCCO)C1CCN(Cc2nc(-c3cn(CC4CCOCC4)c4c(Cl)cccc34)no2)CC1 [Example 19] | < 5 µmol/kg |
| CN(CC(N)=O)Cc1nc(-c2cn(CC3CCOCC3)c3c(Cl)cccc23)no1 [Example 20, 7-Chloro-3-[(5-{[N-(carboxamido)methyl]-N-methylamino}methyl)-([1,2,4]oxadiazol-3-yl)]-1-(tetrahydropyran-4-yl)methyl-1H-indole] | < 5 µmol/kg |
